Measured values: patent publication USRE49687E1, “Thienopyrimidine and thienopyridine compounds and methods of use thereof” (The Regents of The University of Michigan, priority 2014, dated 2023)

These compounds were tested against T1, menin-MLL interaction (Homo sapiens, UniProt O00255) (assay: Fluorescence polarization (FP) competition assay of the menin-MLL interaction). Conditions: inhibition of the menin-MLL interaction; read-out: IC50 values for Table 1 inhibitors of menin.
T1 sequence (O00255 1-610): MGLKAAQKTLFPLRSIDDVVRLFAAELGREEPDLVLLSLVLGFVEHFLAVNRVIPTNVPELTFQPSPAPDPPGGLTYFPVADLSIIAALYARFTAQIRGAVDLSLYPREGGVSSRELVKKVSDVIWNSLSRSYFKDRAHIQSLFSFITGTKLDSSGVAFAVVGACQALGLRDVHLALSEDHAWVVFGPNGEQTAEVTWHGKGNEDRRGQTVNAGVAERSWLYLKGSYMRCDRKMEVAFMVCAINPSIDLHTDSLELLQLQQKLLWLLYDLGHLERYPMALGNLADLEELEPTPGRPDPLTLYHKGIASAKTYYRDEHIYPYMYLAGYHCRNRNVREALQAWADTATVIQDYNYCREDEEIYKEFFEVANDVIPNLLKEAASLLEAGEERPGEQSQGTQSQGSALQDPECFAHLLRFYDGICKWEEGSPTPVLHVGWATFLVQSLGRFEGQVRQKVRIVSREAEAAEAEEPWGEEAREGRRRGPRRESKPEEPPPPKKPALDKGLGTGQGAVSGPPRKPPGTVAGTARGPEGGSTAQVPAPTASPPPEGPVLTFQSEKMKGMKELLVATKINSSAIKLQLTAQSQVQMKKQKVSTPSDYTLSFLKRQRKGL
Format: binding

SMILES | IC50 [nM]
C=CC(=O)N1C2CCC1CN(CCn1c(C#N)cc3c(C)c(CN4CCC(Nc5ncnc6sc(CC(F)(F)F)cc56)CC4)ccc31)C2 [Compound 24] | 30 to 100
Cc1c(CN2CCC(Nc3ncnc4sc(CC(F)(F)F)cc34)CC2)ccc2c1cc(C#N)n2CCN1CCC(NC(=O)/C=C/CN(C)C)CC1 [Compound 27] | < 30
C=CC(=O)N1CCC(Cn2c(C#N)cc3c(C)c(CN4CCC(Nc5ncnc6sc(CC(F)(F)F)cc56)CC4)ccc32)C1 (centres unmarked) [Compound 208] | 30 to 100
C#CC(=O)N1CCN(CCn2c(C#N)cc3c(C)c(CN4CCC(Nc5ncnc6sc(CC(F)(F)F)cc56)CC4)ccc32)CC1 [Compound 5] | 30 to 100
CCC(=O)N1CCC(C(O)Cn2c(C#N)cc3c(C)c(CN4CCC(Nc5ncnc6sc(CC(F)(F)F)cc56)CC4)ccc32)CC1 (centres unmarked) [Compound 211] | 100 to 1000
C=CC(=O)Nc1cn(CCn2c(C#N)cc3c(C)c(CN4CCC(Nc5ncnc6sc(CC(F)(F)F)cc56)CC4)ccc32)cn1 [Compound 192] | 100 to 1000
C=CC(=O)NC1CCN(CCn2c(C#N)cc3c(C)c(CN4CCC(Nc5ncnc6sc(CC(F)(F)F)cc56)CC4)ccc32)CC1 [Compound 25] | 30 to 100
C=CC(=O)N1CC2CCC(C1)N2CCn1c(C#N)cc2c(C)c(CN3CCC(Nc4ncnc5sc(CC(F)(F)F)cc45)CC3)ccc21 [Compound 229] | < 30
Cc1c(CN2CCC(Nc3ncnc4sc(CC(F)(F)F)cc34)CC2)ccc2c1cc(C#N)n2CCN1CCN(C(=O)/C=C/CN(C)C)CC1 [Compound 6] | < 30
C=CC(=O)Nc1ccc(CCn2c(C#N)cc3c(C)c(CN4CCC(Nc5ncnc6sc(CC(F)(F)F)cc56)CC4)ccc32)cc1C#N [Compound 194] | 30 to 100
C=CS(=O)(=O)NC1CCN(CCn2c(C#N)cc3c(C)c(CN4CCC(Nc5ncnc6sc(CC(F)(F)F)cc56)CC4)ccc32)CC1 [Compound 232] | < 30
C=CC(=O)NCCC(O)(CO)Cn1c(C#N)cc2c(C)c(CN3CCC(Nc4ncnc5sc(CC(F)(F)F)cc45)CC3)ccc21 (centres unmarked) [Compound 11] | < 30
C=CC(=O)Nc1cccc(CCn2c(C#N)cc3c(C)c(CN4CCC(Nc5ncnc6sc(CC(F)(F)F)cc56)CC4)ccc32)c1 [Compound 190] | 100 to 1000
C=CC(=O)Nc1ccc(CCn2c(C#N)cc3c(C)c(CN4CCC(Nc5ncnc6sc(CC(F)(F)F)cc56)CC4)ccc32)cc1S(C)(=O)=O [Compound 105] | < 30
C=CC(=O)Nc1ccc(CCn2c(C#N)cc3c(C)c(CN4CCC(Nc5ncnc6sc(CC(F)(F)F)cc56)CC4)ccc32)cn1 [Compound 100, N-(5-(2-(2-cyano-4-methyl-5-((4-(6-(2,2,2-trifluoroethyl)thieno[2,3-d]pyrimidin-4-ylamino)piperidin-1-yl)methyl)-1H-indol-1-yl)ethyl)pyridin-2-yl)acrylamide] | < 30
C=CC(=O)Nc1ccc(CCn2c(C#N)cc3c(C)c(CN4CCC(Nc5ncnc6sc(CC(F)(F)F)cc56)CC4)ccc32)cc1P(=O)(C(C)C)C(C)C [Compound 206] | 100 to 1000
C=CC(=O)Nc1ccc(CCn2c(C#N)cc3c(C)c(CN4CCC(Nc5ncnc6sc(CC(F)(F)F)cc56)CC4)ccc32)cc1 [Compound 81, N-(4-(2-(2-cyano-4-methyl-5-((4-(6-(2,2,2-trifluoroethyl)thieno[2,3-d]pyrimidin-4-ylamino)piperidin-1-yl)methyl)-1H-indol-1-yl)ethyl)phenyl)acrylamide] | < 30
C=CC(=O)Nc1ccc(CCn2c(C#N)cc3c(C)c(CN4CCC(Nc5ncnc6sc(CC(F)(F)F)cc56)CC4)ccc32)cc1P(C)(C)=O [Compound 199] | < 30
C=CC(=O)N1CC2(CN(CCn3c(C#N)cc4c(C)c(CN5CCC(Nc6ncnc7sc(CC(F)(F)F)cc67)CC5)ccc43)C2)C1 [Compound 174] | 30 to 100
Cc1c(CN2CCC(Nc3ncnc4sc(CC(F)(F)F)cc34)CC2)ccc2c1cc(C#N)n2CCc1cccc(P(C)(C)=O)c1 [Compound 204] | 30 to 100
C=CC(=O)N1CC2(CCN(CCn3c(C#N)cc4c(C)c(CN5CCC(Nc6ncnc7sc(CC(F)(F)F)cc67)CC5)ccc43)CC2)C1 [Compound 184] | < 30
Cc1c(CN2CCC(Nc3ncnc4sc(CC(F)(F)F)cc34)CC2)ccc2c1cc(C#N)n2CCc1ccc(N)c(C#N)c1 [Compound 193] | 100 to 1000
C=CC(=O)Nc1ccc(C2(Cn3c(C#N)cc4c(C)c(CN5CCC(Nc6ncnc7sc(CC(F)(F)F)cc67)CC5)ccc43)CC2)cn1 [Compound 216] | 100 to 1000
CCC(=O)Nc1ccc(CCn2c(C#N)cc3c(C)c(CN4CCC(Nc5ncnc6sc(CC(F)(F)F)cc56)CC4)ccc32)cn1 [Compound 254] | 100 to 1000
C=CC(=O)NCc1cc(Cn2c(C#N)cc3c(C)c(CN4CCC(Nc5ncnc6sc(CC(F)(F)F)cc56)CC4)ccc32)n[nH]1 [Compound 10] | 30 to 100

SMILES | IC50 [nM]
Cc1c(CN2CCC(Nc3ncnc4sc(CC(F)(F)F)cc34)CC2)ccc2c1cc(C#N)n2CCP(C)(C)=O [Compound 218] | 100 to 1000
C=CC(=O)N1CCN(CCn2c(C#N)cc3cc(CN4CCC(Nc5ccnc6sc(CC(F)(F)F)cc56)CC4)ccc32)CC1 [Compound 1] | 30 to 100
C=CC(=O)Nc1ccc(C(C)(O)Cn2c(C#N)cc3c(C)c(CN4CCC(Nc5ncnc6sc(CC(F)(F)F)cc56)CC4)ccc32)cn1 (centres unmarked) [Compound 209] | 30 to 100
CCC(=O)N1CCCN(CCn2c(C#N)cc3c(C)c(CN4CCC(Nc5ncnc6sc(CC(F)(F)F)cc56)CC4)ccc32)CC1 [Compound 103] | 30 to 100
C=CC(=O)Nc1ccc([C@@](C)(O)Cn2c(C#N)cc3c(C)c(CN4CCC(Nc5ncnc6sc(CC(F)(F)F)cc56)CC4)ccc32)cc1 [Compound 244] | 30 to 100
C=CC(=O)N1CCC(C(O)Cn2c(C#N)cc3c(C)c(CN4CCC(Nc5ncnc6sc(CC(F)(F)F)cc56)CC4)ccc32)CC1 (centres unmarked) [Compound 210] | 100 to 1000
C=CC(=O)NN1CCN(CCn2c(C#N)cc3c(C)c(CN4CCC(Nc5ncnc6sc(CC(F)(F)F)cc56)CC4)ccc32)CC1 [Compound 94] | 30 to 100
C=CC(=O)N1CCC(Cn2c(C#N)cc3c(C)c(CN4CCC(Nc5ncnc6sc(CC(F)(F)F)cc56)CC4)ccc32)CC1 [Compound 233] | 30 to 100
C=CC(=O)N1CCCN(CCn2c(C#N)cc3c(C)c(CN4CCC(Nc5ncnc6sc(CC(F)(F)F)cc56)CC4)ccc32)CC1 [Compound 66] | < 30
C=CC(=O)Nc1ccc([C@](C)(O)Cn2c(C#N)cc3c(C)c(CN4CCC(Nc5ncnc6sc(CC(F)(F)F)cc56)CC4)ccc32)cc1 [Compound 243] | 30 to 100
CP(C)(=O)c1cc2cc(CN3CCC(Nc4ncnc5sc(CC(F)(F)F)cc45)CC3)ccc2[nH]1 [Compound 205] | > 1000
[2H]C([2H])=C([2H])C(=O)Nc1ccc(C(O)Cn2c(C#N)cc3c(C)c(CN4CCC(Nc5ncnc6sc(CC(F)(F)F)cc56)CC4)ccc32)cn1 (centres unmarked) [Compound 242] | 30 to 100
C/C=C/S(=O)(=O)N1CCN(CCn2c(C#N)cc3c(C)c(CN4CCC(Nc5ncnc6sc(CC(F)(F)F)cc56)CC4)ccc32)CC1 [Compound 7] | < 30
C=CS(=O)(=O)N1CC2CC1CN2CCn1c(C#N)cc2c(C)c(CN3CCC(Nc4ncnc5sc(CC(F)(F)F)cc45)CC3)ccc21 (centres unmarked) [Compound 17, 4-methyl-5-((4-((6-(2,2,2-trifluoroethyl)thieno[2,3-d]pyrimidin-4-yl)amino)piperidin-1-yl)methyl)-1-(2-(5-(vinylsulfonyl)-2,5-diazabicyclo[2.2.1]heptan-2-yl)ethyl)-1H-indole-2-carbonitrile] | 100 to 1000
Cc1c(CN2CCC(Nc3ncnc4sc(CC(F)(F)F)cc34)CC2)ccc2c1cc(C#N)n2CCN1CCC2(CCNC2)CC1 [Compound 169] | 30 to 100
C=CS(=O)(=O)N1CCN(CCn2c(C#N)cc3c(C)c(CN4CCC(Nc5ncnc6sc(CC(F)(F)F)cc56)CC4)ccc32)C[C@@H]1C [Compound 230] | < 30
C[Si](C)(C)CCOCn1c(P(C)(C)=O)cc2cc(CN3CCC(Nc4ncnc5sc(CC(F)(F)F)cc45)CC3)ccc21 [Compound 207] | > 1000
C=CC(=O)N1CCC2(CCN(CCn3c(C#N)cc4c(C)c(CN5CCC(Nc6ncnc7sc(CC(F)(F)F)cc67)CC5)ccc43)CC2)C1 [Compound 170] | 30 to 100
C=CC(=O)Nc1ccc(CCn2c(C#N)cc3c(C)c(CN4CCC(Nc5ncnc6sc(CC(F)(F)F)cc56)CC4)ccc32)cc1P(=O)(CC)CC [Compound 203] | < 30
Cc1c(CN2CCC(Nc3ncnc4sc(CC(F)(F)F)cc34)CC2)ccc2c1cc(C#N)n2CC(O)c1cccc(S(C)(=O)=O)c1 (centres unmarked) [Compound 197] | 30 to 100
C=CC(=O)N[C@H]1CCN(CCn2c(C#N)cc3c(C)c(CN4CCC(Nc5ncnc6sc(CC(F)(F)F)cc56)CC4)ccc32)C1 [Compound 31] | < 30
C/C=C/C(=O)Nc1ccc(CCn2c(C#N)cc3c(C)c(CN4CCC(Nc5ncnc6sc(CC(F)(F)F)cc56)CC4)ccc32)cn1 [Compound 106] | 30 to 100
Cc1c(CN2CCC(Nc3ncnc4sc(CC(F)(F)F)cc34)CC2)ccc2c1cc(C#N)n2CCc1ccc(N)c(S(C)(=O)=O)c1 [Compound 104] | 30 to 100
C=CC(=O)N1CCC2(CN(CCn3c(C#N)cc4c(C)c(CN5CCC(Nc6ncnc7sc(CC(F)(F)F)cc67)CC5)ccc43)C2)C1 [Compound 176] | 30 to 100
C=CC(=O)N1CCC2(CC1)CN(CCn1c(C#N)cc3c(C)c(CN4CCC(Nc5ncnc6sc(CC(F)(F)F)cc56)CC4)ccc31)C2 [Compound 178] | 30 to 100
